One data set concerns human B cells. The data set can be described thus: BAFF B cell survival assay (Cell Titer Glo). The format is cell-based. How it is done:
Human B cells were isolated using Miltenyi Human B cell isolation kit following ficoll separation of buffy coats. […] Mouse B cells were isolated from mouse spleen using Miltenyi mouse B cell isolation kit II. Cells were plated in Co-star 96-well plates at either 50,000 cells/well for the survival assays or at 150,000 cells/well for the proliferation assays. Compounds diluted in DMSO (final DMSO assay concentration = 0.1%) were added to the cells. The cells were incubated with compound for one hour at 37 °C. Stimulus was then added to the plates and survival or proliferation was measured after four days. For the proliferation assays, cells were treated with either Anti-IgM (20 μg/mL) or rhCD40L (10 μg/mL; R&D) or anti-mouse CD40 (100 ng/mL). Proliferation was measured using thymidine incorporation on day four. For the BAFF survival assay, cells were treated with human or mouse rBAFF (R&D Systems) at 10 ng/ml followed by Cell Titer Glo (Promega) to measure survival on day four.

The test system of data set [1] is IL-12p40 production from human monocyte derived DC. Nature of the data set: CD40L induced IL-12p40 production from human DCs. Type of data set: cell-based. How it is done: Human monocytes were enriched from whole blood (Monocyte enrichment RosetteSep, Stem Cell) followed by isolation using Monocyte Isolation Kit II (Miltenyi). Isolated monocytes were cultured (RPMI-10% FBS, penicillin/streptomycin, glutamine) with rhGM-CSF (100 ng/mL) and rhIL-4 (6.5 ng/mL) (R&D Systems) for 5 days with GM-CSF replacement on day 3. On Day 5 immature monocyte derived DCs were monitored for differentiation by flow cytometry ([…], CD83^low CD86^low CD209^+/hi). […] After 24 h plates were centrifuged and supernatants were removed for IL-12p40 cytokine measurement by ELISA (BD Biosciences). Plots and IC50 measurements were generated using GraphPad Prism software.

Data set [2] concerns p52 processing in human RPTEC. Nature of the data set: TWEAK-induced p52 processing western blot in RPTEC. Type of data set: cell-based. The following applies: 1 μM, 4, 8 and 24 h. The procedure: (§1) p52/p100 and β-actin were monitored by western blot as described previously. […] Mouse and human RPTEC cells were stimulated with recombinant mouse or human TWEAK (100 ng/mL, R&D Systems). Primary B cells were isolated by negative selection (Miltenyi) from either mouse spleen or human whole blood. Human primary B cells were stimulated with either rhCD40L (10 μg/mL) or rhBAFF (400 ng/mL) (R&D Systems). Mouse primary B cells were stimulated with either anti-CD40 (10 μg/mL, BD Biosciences) or rmBAFF (400 ng/mL). […] HeLa cells (ATCC) were stimulated for 8 h with anti-LTβR agonist antibody and cytoplasmic and nuclear extracts were generated using kits purchase from Thermo Scientific and approximately […] of each extract was monitored for p52/p100, phospho-RelA, RelA, or β-Actin, Histone H3, or Lamin B1 controls. Uncropped western blots, as required by journal policies, are provided in Supplementary Fig. 13 and 14.
Background: A western blot detects proteins with antibodies after separation by electrophoresis.

For data set [3], the system named is p52 processing in mouse RPTEC. Nature of the data set: TWEAK-induced p52 processing western blot in RPTEC. Type of data set: cell-based. The note with it: murine RPTEC; 3 μM; 4, 8 and 24 h. How it is done: as §1
Data set [4] can be described thus: In vivo studies in mice: PK, target coverage, tolerability. On the set-up: species or system mouse.
The target in another data set is T1, ACVR1B (Homo sapiens, UniProt P36896).
T1 construct: purchased Invitrogen / ThermoFisher SelectScreen
Nature of the data set: SelectScreen kinase panel. Type of data set: biochemical. How it is done: (§2) The ability of NIK to catalyze the hydrolysis of adenosine-5′-triphosphate (ATP) was monitored using the Transcreener ADP (adenosine-5′-diphosphate) assay (Bell Brook Labs, Fitchburg, WI). Purified human NIK kinase domain (a.a. 340–694) (0.5 nM) or mouse NIK kinase domain (a.a. 329–675) (1 nM) derived from a baculovirus-infected insect cell expression system was incubated with test compounds for 0.5–2 h in 50 mM HEPES buffer (pH 7.2) containing 10 mM MgCl2, 2 mM dithiothreitol, 10 μM ATP, 0.01% Triton X-100, 0.1% gamma-globulins from bovine blood, 1% dimethylsulfoxide (DMSO), 7 μg/mL ADP antibody and 5 nM ADP-MR121 633 tracer. Reactions were quenched by the addition of 20 mM EDTA and 0.01% Brij 35. The tracer bound to the antibody was displaced by the ADP generated during the NIK reaction, which caused a decrease in fluorescence polarization that was measured by laser excitation at 633 nm with a Fluorescence Correlation Spectroscopy Plus reader (Evotec AG). Equilibrium dissociation constant (Ki) values for NIK inhibitors are calculated from plots of activity vs. inhibitor concentration using Morrison’s quadratic equation that accounts for the potential of tight binding, and by also applying the conversion factor that accounted for competitive inhibition and the concentration of substrate used in the assay relative to its Michaelis constant (Km). The Ki values with hPKD1 (PKCμ) were determined using the same assay conditions as for NIK. Ki measurements for hKHS1 and hLRRK2, as well as broad kinase selectivity profiling for SMI1, were carried out by Invitrogen using their SelectScreen kinase assay panel (ThermoFisher Scientific, Madison, WI). The vendor offered two types of kinase activity assays, a peptide phosphorylation assay (Z′-LYTE) and an ADP quantitation assay (Adapta), as well as one type of kinase ATP site competitive binding assay (LanthaScreen). See vendor web site for technology and protocol details for each specific kinase assay.
(§3) The average % Inhibition of each kinase is reported (Supplementary Table 1).

The target of a further data set is T2, CDK7/cyclinH (Homo sapiens, UniProt P50613).
T2 construct: purchased Invitrogen / ThermoFisher SelectScreen
Nature of the data set: SelectScreen kinase panel. Type of data set: biochemical. The procedure: as §2, §3

Another data set has as its target T3, CamKII_alpha (Homo sapiens, UniProt Q9UQM7).
T3 construct: purchased Invitrogen / ThermoFisher SelectScreen
Nature of the data set: SelectScreen kinase panel. Type of data set: biochemical. How it is done: as §2, §3

The next data set concerns the target T4, EphA8 (Homo sapiens, UniProt P29322).
T4 construct: purchased Invitrogen / ThermoFisher SelectScreen
Nature of the data set: SelectScreen kinase panel. The format is biochemical. How it is done:
as §2, §3

The next data set deals with T5, Frk (Homo sapiens, UniProt P42685).
T5 construct: purchased Invitrogen / ThermoFisher SelectScreen
The data set can be described thus: SelectScreen kinase panel. The format is biochemical. The procedure:
as §2, §3

The next data set deals with T6, JAK1 (Homo sapiens, UniProt P23458).
T6 construct: purchased Invitrogen / ThermoFisher SelectScreen
The data set can be described thus: SelectScreen kinase panel. Type of data set: biochemical. The procedure: as §2, §3

The target in another data set is T7, MSK1 (Homo sapiens, UniProt O75582).
T7 construct: purchased Invitrogen / ThermoFisher SelectScreen
Nature of the data set: SelectScreen kinase panel. Type of data set: biochemical. The procedure: as §2, §3

A further data set addresses T8, Mink1 (Homo sapiens, UniProt Q8N4C8).
T8 construct: purchased Invitrogen / ThermoFisher SelectScreen
Nature of the data set: SelectScreen kinase panel. Type of data set: biochemical. The procedure:
as §2, §3

The next data set has as its target T9, PAK1 (Homo sapiens, UniProt Q13153).
T9 construct: purchased Invitrogen / ThermoFisher SelectScreen
Nature of the data set: SelectScreen kinase panel. The format is biochemical. How it is done: as §2, §3

The next data set addresses T10, Src (Homo sapiens, UniProt P12931).
T10 construct: purchased Invitrogen / ThermoFisher SelectScreen
Nature of the data set: SelectScreen kinase panel. The format is biochemical. The procedure: as §2, §3

Data on 1 compound can be found in PMC5766581, “NF-κB inducing kinase is a therapeutic target for systemic lupus erythematosus” (Nature Communications, 2018).

A word on the pIC50: it is the negative decadic logarithm of the IC50, by convention in mol/L. By inhibition is commonly meant the change of the read-out against control, counted positive when it falls.

pIC50: −log10 of the molar value.

T3 sequence (Q9UQM7 whole entry): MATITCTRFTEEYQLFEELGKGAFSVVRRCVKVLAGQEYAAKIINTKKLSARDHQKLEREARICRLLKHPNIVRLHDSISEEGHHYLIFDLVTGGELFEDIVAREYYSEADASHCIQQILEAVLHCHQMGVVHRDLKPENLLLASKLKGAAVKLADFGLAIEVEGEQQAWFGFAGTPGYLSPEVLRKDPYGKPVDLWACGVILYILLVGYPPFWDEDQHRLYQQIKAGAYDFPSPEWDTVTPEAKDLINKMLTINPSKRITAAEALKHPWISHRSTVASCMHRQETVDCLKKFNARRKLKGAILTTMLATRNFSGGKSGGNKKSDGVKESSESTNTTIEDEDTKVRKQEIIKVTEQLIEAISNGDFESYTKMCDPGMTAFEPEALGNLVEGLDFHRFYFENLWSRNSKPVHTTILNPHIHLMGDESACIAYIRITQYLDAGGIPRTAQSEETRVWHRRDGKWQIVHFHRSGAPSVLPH
T5 sequence (P42685 whole entry): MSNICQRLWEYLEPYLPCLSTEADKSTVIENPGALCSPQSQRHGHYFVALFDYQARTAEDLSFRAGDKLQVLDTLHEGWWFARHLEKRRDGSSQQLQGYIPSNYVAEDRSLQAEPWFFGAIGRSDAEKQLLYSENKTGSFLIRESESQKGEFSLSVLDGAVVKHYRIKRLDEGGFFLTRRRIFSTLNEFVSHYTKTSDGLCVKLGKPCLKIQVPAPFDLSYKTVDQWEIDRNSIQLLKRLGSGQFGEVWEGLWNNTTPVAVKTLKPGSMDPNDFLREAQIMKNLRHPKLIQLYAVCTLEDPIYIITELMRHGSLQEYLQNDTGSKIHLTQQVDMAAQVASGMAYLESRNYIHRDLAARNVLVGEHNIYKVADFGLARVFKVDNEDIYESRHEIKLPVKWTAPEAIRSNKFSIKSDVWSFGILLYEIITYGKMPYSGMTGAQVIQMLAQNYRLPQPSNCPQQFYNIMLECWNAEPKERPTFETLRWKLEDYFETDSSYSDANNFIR
T7 sequence (O75582 whole entry): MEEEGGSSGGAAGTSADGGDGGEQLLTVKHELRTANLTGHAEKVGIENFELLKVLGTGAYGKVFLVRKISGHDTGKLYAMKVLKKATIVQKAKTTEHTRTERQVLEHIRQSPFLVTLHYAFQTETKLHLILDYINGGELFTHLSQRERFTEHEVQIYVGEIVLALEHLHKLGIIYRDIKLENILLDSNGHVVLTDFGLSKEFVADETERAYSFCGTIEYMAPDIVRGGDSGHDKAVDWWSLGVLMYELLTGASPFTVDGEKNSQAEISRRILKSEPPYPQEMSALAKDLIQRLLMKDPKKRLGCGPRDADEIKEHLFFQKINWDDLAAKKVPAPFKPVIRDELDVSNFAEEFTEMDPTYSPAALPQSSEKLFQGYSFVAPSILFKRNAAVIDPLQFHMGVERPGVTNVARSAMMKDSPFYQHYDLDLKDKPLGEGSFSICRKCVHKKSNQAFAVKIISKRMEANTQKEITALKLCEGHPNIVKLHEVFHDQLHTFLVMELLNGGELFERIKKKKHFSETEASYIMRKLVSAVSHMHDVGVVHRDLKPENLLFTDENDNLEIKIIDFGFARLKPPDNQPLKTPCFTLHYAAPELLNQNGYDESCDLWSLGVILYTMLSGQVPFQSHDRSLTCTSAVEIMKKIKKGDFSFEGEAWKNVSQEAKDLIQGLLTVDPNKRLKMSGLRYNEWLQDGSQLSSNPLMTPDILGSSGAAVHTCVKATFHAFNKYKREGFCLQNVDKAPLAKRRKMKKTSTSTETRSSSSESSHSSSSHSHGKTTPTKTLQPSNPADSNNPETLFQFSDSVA
T9 sequence (Q13153 whole entry): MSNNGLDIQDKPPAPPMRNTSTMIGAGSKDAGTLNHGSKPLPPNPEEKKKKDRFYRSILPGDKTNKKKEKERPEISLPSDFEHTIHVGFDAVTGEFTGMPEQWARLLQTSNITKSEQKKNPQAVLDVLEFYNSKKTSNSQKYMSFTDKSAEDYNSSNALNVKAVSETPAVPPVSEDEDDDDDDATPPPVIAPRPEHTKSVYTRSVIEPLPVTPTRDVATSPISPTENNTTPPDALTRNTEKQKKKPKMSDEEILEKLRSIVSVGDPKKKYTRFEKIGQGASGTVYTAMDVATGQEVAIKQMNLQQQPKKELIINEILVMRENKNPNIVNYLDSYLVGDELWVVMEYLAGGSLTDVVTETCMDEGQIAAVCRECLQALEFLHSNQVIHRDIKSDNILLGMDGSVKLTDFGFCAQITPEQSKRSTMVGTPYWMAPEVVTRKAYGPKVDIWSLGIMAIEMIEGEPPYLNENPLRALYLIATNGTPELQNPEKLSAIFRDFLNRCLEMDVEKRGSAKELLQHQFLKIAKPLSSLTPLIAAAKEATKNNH
T6 sequence (P23458 whole entry): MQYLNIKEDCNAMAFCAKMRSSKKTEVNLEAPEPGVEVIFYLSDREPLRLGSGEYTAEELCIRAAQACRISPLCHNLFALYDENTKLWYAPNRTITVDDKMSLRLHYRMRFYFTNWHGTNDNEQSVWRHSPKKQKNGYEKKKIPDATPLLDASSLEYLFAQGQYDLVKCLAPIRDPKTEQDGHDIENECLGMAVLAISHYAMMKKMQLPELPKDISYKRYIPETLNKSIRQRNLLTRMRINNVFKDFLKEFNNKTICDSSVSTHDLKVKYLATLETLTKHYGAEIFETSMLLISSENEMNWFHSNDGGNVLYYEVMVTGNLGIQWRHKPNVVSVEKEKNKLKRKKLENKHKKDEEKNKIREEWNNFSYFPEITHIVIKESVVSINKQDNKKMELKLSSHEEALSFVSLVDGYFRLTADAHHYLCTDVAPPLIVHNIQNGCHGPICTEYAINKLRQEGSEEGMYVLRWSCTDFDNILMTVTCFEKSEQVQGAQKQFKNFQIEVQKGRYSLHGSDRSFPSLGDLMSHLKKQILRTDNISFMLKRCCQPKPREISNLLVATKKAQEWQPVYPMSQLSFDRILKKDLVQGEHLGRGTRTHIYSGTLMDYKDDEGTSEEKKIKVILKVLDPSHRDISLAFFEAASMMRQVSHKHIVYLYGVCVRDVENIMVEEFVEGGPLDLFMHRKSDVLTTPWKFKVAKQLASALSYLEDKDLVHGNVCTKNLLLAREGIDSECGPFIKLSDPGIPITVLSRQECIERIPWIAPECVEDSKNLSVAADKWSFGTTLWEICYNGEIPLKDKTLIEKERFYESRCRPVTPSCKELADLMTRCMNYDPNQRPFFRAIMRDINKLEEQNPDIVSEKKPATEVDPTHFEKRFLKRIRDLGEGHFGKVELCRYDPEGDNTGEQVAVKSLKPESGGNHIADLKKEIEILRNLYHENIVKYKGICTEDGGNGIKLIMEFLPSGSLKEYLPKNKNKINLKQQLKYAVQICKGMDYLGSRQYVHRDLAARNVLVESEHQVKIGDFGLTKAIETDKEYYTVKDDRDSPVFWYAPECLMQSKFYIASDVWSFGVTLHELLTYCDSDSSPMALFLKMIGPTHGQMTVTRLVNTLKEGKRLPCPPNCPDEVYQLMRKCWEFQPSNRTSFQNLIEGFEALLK
T2 sequence (P50613 whole entry): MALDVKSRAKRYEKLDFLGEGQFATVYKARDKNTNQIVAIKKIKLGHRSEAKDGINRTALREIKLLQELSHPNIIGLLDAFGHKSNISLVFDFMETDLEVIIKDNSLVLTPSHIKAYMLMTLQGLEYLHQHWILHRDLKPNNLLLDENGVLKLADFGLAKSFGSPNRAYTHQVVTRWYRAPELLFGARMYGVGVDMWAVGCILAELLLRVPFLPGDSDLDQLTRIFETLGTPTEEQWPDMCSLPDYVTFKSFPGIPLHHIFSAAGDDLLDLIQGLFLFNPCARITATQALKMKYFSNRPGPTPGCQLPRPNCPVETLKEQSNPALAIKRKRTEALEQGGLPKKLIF
T2 sequence (P51946 whole entry partner): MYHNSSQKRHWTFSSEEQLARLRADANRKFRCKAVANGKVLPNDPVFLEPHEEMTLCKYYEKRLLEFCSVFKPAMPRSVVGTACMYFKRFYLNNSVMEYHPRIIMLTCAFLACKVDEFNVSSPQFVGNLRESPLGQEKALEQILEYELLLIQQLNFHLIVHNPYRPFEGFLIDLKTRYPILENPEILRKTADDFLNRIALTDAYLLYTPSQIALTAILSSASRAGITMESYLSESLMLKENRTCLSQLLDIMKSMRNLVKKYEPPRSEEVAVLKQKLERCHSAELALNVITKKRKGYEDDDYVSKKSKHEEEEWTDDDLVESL
T2 sequence (P51948 whole entry partner): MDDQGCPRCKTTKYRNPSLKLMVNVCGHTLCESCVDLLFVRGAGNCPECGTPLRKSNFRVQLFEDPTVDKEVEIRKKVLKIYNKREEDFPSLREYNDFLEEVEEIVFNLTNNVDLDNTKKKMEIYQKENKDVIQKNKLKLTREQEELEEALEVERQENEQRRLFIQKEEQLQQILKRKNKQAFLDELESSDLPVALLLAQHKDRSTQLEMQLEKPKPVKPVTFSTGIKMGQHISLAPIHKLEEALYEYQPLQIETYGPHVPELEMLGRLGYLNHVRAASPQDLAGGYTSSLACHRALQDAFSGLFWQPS
T1 sequence (P36896 24-505): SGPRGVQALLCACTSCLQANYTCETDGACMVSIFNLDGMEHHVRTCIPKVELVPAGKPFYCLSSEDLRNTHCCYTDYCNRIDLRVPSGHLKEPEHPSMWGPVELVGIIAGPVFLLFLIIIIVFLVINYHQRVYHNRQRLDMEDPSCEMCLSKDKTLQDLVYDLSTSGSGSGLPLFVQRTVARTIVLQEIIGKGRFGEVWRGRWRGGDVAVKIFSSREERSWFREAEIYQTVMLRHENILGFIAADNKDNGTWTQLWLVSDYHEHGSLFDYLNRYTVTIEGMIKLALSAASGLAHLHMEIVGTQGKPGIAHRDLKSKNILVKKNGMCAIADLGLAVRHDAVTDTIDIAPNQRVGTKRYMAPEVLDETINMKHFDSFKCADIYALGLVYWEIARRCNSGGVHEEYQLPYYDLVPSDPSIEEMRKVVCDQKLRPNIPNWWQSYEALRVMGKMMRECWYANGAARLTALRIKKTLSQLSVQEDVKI

For `COc1cc(C(N)=O)nc(-c2cccc(C#C[C@]3(O)CCN(C)C3=O)c2)c1` [NIK SMI1], the pIC50 with human B cells (Homo sapiens, B-cell, BAFF induced, mean ± SD) is 6.72; in data set [1] (human monocyte derived DC, rhCD40L, mean ± SD, read-out: CD40-induced IL-12 p40 IC50) it was 7.02. Further, the “BAFF-driven survival of B cells in vitro” value in the data set on human B cells (human B cells) is listed as “completely inhibited”. Besides, in [1] (dendritic cells), the “CD40L-induced IL-12p40 production” value was “nearly completely inhibited”. Besides, the “TWEAK-induced p52 processing” value in [2] and in data set [3] was “significantly reduced” in each case. For the same compound, in [4] (180 mg/kg, no formal toxicity assessment), the “adverse effect not explained by on-target pharmacology” value is “never observed any adverse effect”. In data set [4] (doses used in vivo), the “coverage of NIK activity in vivo” value is on record as 70–90%. For the same compound, the PK properties entry in data set [4] (mouse, in vivo) is recorded as “excellent”. In addition, the inhibition at 1 µM was 2% at ACVR1B; -5.5% at CDK7/cyclinH; 17.5% against CamKII_alpha; -3.5% at EphA8; 18% on Frk; -7% against JAK1. In addition, the inhibition at 1 µM is 7.5% against MSK1, 53.5% on Mink1, 9% against PAK1 and -1.5% against Src.
